Measured values published in patent US20250144067A1, “PERSONALIZED STARVATION THERAPY FOR CANCER” (Faeth Therapeutics, Inc., priority 2021, published 2025).
Structures can show the parent of a compound that is named as a salt. Where two headings read alike, the source gives them in different places.

Key:
[1] = system: NCI-H292 lung cancer cells; assay: FDA drug screening, complete media vs cholesterol-free media without statin (TABLE 1); type: cell-based, human
[2] = system: NCI-H292 lung cancer cells; assay: FDA drug screening, complete media vs cholesterol-free media with simvastatin (TABLE 2); type: cell-based, human
[3] = Complete minus Cholesterol-free, greater than 0 enhanced anti-cancer activity, about 0 neutral, below 0 antagonist
[4] = NCI-H292 cells, FDA drug library screen, cholesterol-free media without statin
[5] = NCI-H292 cells, FDA drug library screen, complete media
[6] = NCI-H292 cells, FDA drug library screen, cholesterol-free media with simvastatin 0.04 μM
[7] = complete media minus cholesterol-free media + simvastatin, >0 enhanced anti-cancer activity, about 0 neutral, <0 antagonist
[8] = NCI-H292 cells, cholesterol-free media with simvastatin 0.04 μM, FDA drug library screen (TABLE 2)
[9] = NCI-H292 cells, complete media, FDA drug library screen (TABLE 2)
[10] = complete media minus cholesterol-free media + simvastatin (0.04 μM), >0 enhanced anti-cancer activity, about 0 neutral, <0 antagonist
[11] = NCI-H292 cells, cholesterol-free media without statin
[12] = complete vs cholesterol-free media, […]
[13] = complete vs cholesterol-free media, greater than 0 enhanced anti-cancer activity, about 0 neutral, below 0 antagonists
[14] = NCI-H292 cells, cholesterol-free media with simvastatin 0.04 μM, cell growth value in FDA drug screen
[15] = NCI-H292 cells, complete media, cell growth value in FDA drug screen
[16] = Complete minus Cholesterol-free, >0 enhanced anti-cancer activity, about 0 neutral, <0 antagonist
[17] = NCI-H292 cells, FDA library drug in cholesterol-free media with simvastatin 0.04 μM
[18] = NCI-H292 cells, FDA library drug in complete media
[19] = complete media vs cholesterol-free media + simvastatin (0.04 μM), >0 enhanced anti-cancer activity, about 0 neutral, <0 antagonist
[20] = Complete minus Cholesterol-free, […]
[21] = NCI-H292 cells, cholesterol-free media without statin, FDA drug library screen
[22] = NCI-H292 cells, complete media, FDA drug library screen
[23] = complete media minus cholesterol-free media + simvastatin, […]
[24] = complete media vs cholesterol-free media + simvastatin (0.04 μM), […]
[25] = complete vs cholesterol-free media, >0 enhanced anti-cancer activity, about 0 neutral, <0 antagonist
[26] = Complete minus Cholesterol-free, greater than 0 enhanced anti-cancer activity, about 0 neutral, below 0 antagonists
[27] = NCI-H292 cells in cholesterol-free media without statin
[28] = NCI-H292 cells in complete media
[29] = NCI-H292 cells, drug in cholesterol-free media with simvastatin 0.04 μM
[30] = NCI-H292 cells, drug in complete media

CC(=O)Nc1c(I)c(NC(C)=O)c(I)c(C(=O)[O-])c1I.[Na+] [Sodium diatrizoate]
Difference [1, 3]: −0.08
Cholesterol-free [1, 4]: 1.128
Complete [1, 5]: 1.045
Cholesterol-free media + simvastatin (0.04 μM) [2, 6]: 0.8717
Complete Media [2, 5]: 1.037
Difference [2, 7]: 0.16

Cc1cc(S(=O)(=O)O)c2c(C)ccc(C(C)C)cc1-2 [Sodium gualenate]
Difference [1, 3]: −0.12
Cholesterol-free [1, 4]: 0.9704
Complete [1, 5]: 0.8542
Cholesterol-free media + simvastatin (0.04 μM) [2, 8]: 0.8796
Complete Media [2, 9]: 0.8094
Difference [2, 10]: −0.07

CC(C)=CCOc1ccc(/C=C/C(=O)c2ccc(OCC=C(C)C)cc2OCC(=O)O)cc1 [Sofalcone]
Difference [1, 3]: −0.07
Cholesterol-free [1, 4]: 0.9203
Complete [1, 5]: 0.8453
Cholesterol-free media + simvastatin (0.04 μM) [2, 8]: 0.8486
Complete Media [2, 9]: 0.7952
Difference [2, 10]: −0.05

CC(C)OC(=O)[C@H](C)N[P@](=O)(OC[C@H]1O[C@@H](n2ccc(=O)[nH]c2=O)[C@](C)(F)[C@@H]1O)Oc1ccccc1 [Sofosbuvir]
Cholesterol-free [1, 11]: 1.138
Complete ([1]; NCI-H292 cells, complete media): 0.6875
Difference [1, 12]: −0.45
Cholesterol-free media + simvastatin (0.04 μM) [2, 8]: 0.9955
Complete Media [2, 9]: 0.9628
Difference ([2]; complete media minus cholesterol-free media + simvastatin (0.04 μM), […]): −0.03

O=C(O[C@H]1CN2CCC1CC2)N1CCc2ccccc2[C@@H]1c1ccccc1 [Solifenacin (hydrochloride)]
Cholesterol-free [1, 11]: 1.128
Complete ([1]; NCI-H292 cells, complete media): 0.8222
Difference [1, 13]: −0.31
Cholesterol-free media + simvastatin (0.04 μM) [2, 14]: 0.865
Complete Media [2, 15]: 0.978
Difference [2, 7]: 0.11

O=C(O[C@H]1CN2CCC1CC2)N1CCc2ccccc2[C@@H]1c1ccccc1 [Solifenacin]
Difference [1, 16]: −0.26
Cholesterol-free [1, 11]: 1.142
Complete ([1]; NCI-H292 cells, complete media): 0.8797
Cholesterol-free media + simvastatin (0.04 μM) [2, 17]: 1.222
Complete Media [2, 18]: 0.9497
Difference [2, 19]: −0.27

NC(=O)OC[C@H](N)Cc1ccccc1 [Solriamfetol (hydrochloride)]
Difference [1, 20]: −0.02
Cholesterol-free [1, 21]: 1.017
Complete [1, 22]: 1
Cholesterol-free media + simvastatin (0.04 μM) [2, 6]: 0.997
Complete Media [2, 5]: 1.138
Difference [2, 23]: 0.14

NC(=O)OC[C@H](N)Cc1ccccc1 [Solriamfetol]
Difference [1, 20]: −0.04
Cholesterol-free [1, 21]: 1.006
Complete [1, 22]: 0.9654
Cholesterol-free media + simvastatin (0.04 μM) [2, 17]: 1.23
Complete Media [2, 18]: 0.8852
Difference [2, 24]: −0.34

Cc1c(C(=O)Nc2ccc(N3C[C@@H](C)O[C@@H](C)C3)nc2)cccc1-c1ccc(OC(F)(F)F)cc1 [Sonidegib]
Cholesterol-free [1, 21]: 0.6523
Complete [1, 22]: 0.8188
Difference [1, 25]: 0.17
Cholesterol-free media + simvastatin (0.04 μM) [2, 14]: 1.12
Complete Media [2, 15]: 1.188
Difference [2, 7]: 0.07

O=C1CCC[C@@H]2[C@H]3CCCN4CCC[C@H](CN12)[C@@H]34 [Sophoridine]
Cholesterol-free [1, 11]: 1.507
Complete ([1]; NCI-H292 cells, complete media): 1.042
Difference [1, 12]: −0.46
Cholesterol-free media + simvastatin (0.04 μM) [2, 17]: 1.337
Complete Media [2, 18]: 1.063
Difference [2, 24]: −0.27

CNC(=O)c1cc(Oc2ccc(NC(=O)Nc3ccc(Cl)c(C(F)(F)F)c3)cc2)ccn1 [Sorafenib]
Cholesterol-free [1, 21]: 0.8045
Complete [1, 22]: 1.015
Difference [1, 25]: 0.21
Cholesterol-free media + simvastatin (0.04 μM) [2, 6]: 0.7364
Complete Media [2, 5]: 0.915
Difference [2, 7]: 0.18

CCOc1ccc(Cc2cc([C@@H]3O[C@H](SC)[C@@H](O)[C@H](O)[C@H]3O)ccc2Cl)cc1 [Sotagliflozin]
Difference [1, 3]: −0.11
Cholesterol-free [1, 4]: 1.101
Complete [1, 5]: 0.9895
Cholesterol-free media + simvastatin (0.04 μM) [2, 6]: 1.193
Complete Media [2, 5]: 1.078
Difference [2, 19]: −0.11

CC(C)NCC(O)c1ccc(NS(C)(=O)=O)cc1 (centres unmarked) [Sotalol (hydrochloride)]
Cholesterol-free [1, 11]: 1.39
Complete ([1]; NCI-H292 cells, complete media): 0.9629
Difference [1, 13]: −0.43
Cholesterol-free media + simvastatin (0.04 μM) [2, 6]: 0.8339
Complete Media [2, 5]: 0.7583
Difference [2, 19]: −0.08

C[C@@H]1CN(c2c(F)c(N)c3c(=O)c(C(=O)O)cn(C4CC4)c3c2F)C[C@H](C)N1 [Sparfloxacin]
Difference [1, 26]: −0.52
Cholesterol-free [1, 27]: 1.45
Complete [1, 28]: 0.9275
Cholesterol-free media + simvastatin (0.04 μM) [2, 6]: 0.949
Complete Media [2, 5]: 1.118
Difference [2, 7]: 0.17

CN[C@@H]1[C@H](O)[C@H](NC)[C@H]2O[C@@]3(O)C(=O)C[C@@H](C)O[C@H]3O[C@@H]2[C@H]1O [Spectinomycin (dihydrochloride)]
Cholesterol-free [1, 21]: 0.9841
Complete [1, 22]: 1.077
Difference [1, 25]: 0.09
Cholesterol-free media + simvastatin (0.04 μM) [2, 8]: 1.126
Complete Media [2, 9]: 1.142
Difference [2, 10]: 0.02

CC(=O)S[C@@H]1CC2=CC(=O)CC[C@]2(C)[C@H]2CC[C@@]3(C)[C@@H](CC[C@@]34CCC(=O)O4)[C@H]12 [Spironolactone]
Difference [1, 16]: 0.03
Cholesterol-free [1, 21]: 1.102
Complete [1, 22]: 1.134
Cholesterol-free media + simvastatin (0.04 μM) [2, 17]: 1.784
Complete Media [2, 18]: 1.272
Difference [2, 19]: −0.51

CC(C)=CCC/C(C)=C/CC/C(C)=C/CC/C=C(\C)CC/C=C(\C)CCC=C(C)C [Squalene]
Cholesterol-free [1, 21]: 1.273
Complete [1, 22]: 1.566
Difference [1, 25]: 0.29
Cholesterol-free media + simvastatin (0.04 μM) [2, 29]: 0.9877
Complete Media [2, 30]: 0.7931
Difference [2, 19]: −0.19

Cc1cn([C@H]2C=C[C@@H](CO)O2)c(=O)[nH]c1=O [Stavudine]
Difference [1, 3]: −0.09
Cholesterol-free [1, 4]: 0.9921
Complete [1, 5]: 0.8994
Cholesterol-free media + simvastatin (0.04 μM) [2, 29]: 1.022
Complete Media [2, 30]: 0.8293
Difference [2, 19]: −0.19

CCCCCCCCCCCCCCCCCC(=O)O [Stearic acid]
Difference [1, 3]: −0.14
Cholesterol-free [1, 4]: 1.159
Complete [1, 5]: 1.022
Cholesterol-free media + simvastatin (0.04 μM) [2, 6]: 1.741
Difference [2, 10]: −1.08

CC(C)(C)C(O)/C=C/c1ccc2c(c1)OCO2 (centres unmarked) [Stiripentol]
Difference [1, 16]: 0.02
Cholesterol-free [1, 21]: 0.9226
Complete [1, 22]: 0.9415
Cholesterol-free media + simvastatin (0.04 μM) [2, 8]: 0.9313
Complete Media [2, 9]: 0.8754
Difference [2, 10]: −0.06

O=C(O)[C@@H](S)[C@@H](S)C(=O)O [Succimer]
Cholesterol-free [1, 11]: 1.406
Complete ([1]; NCI-H292 cells, complete media): 0.9576
Difference [1, 13]: −0.45
Cholesterol-free media + simvastatin (0.04 μM) [2, 29]: 1.252
Complete Media [2, 30]: 1.035
Difference [2, 19]: −0.22

O=C(O)CCC(=O)O [Succinic acid]
Cholesterol-free [1, 21]: 0.9807
Complete [1, 22]: 1.143
Difference [1, 25]: 0.16
Cholesterol-free media + simvastatin (0.04 μM) [2, 8]: 1.729
Complete Media [2, 9]: 1.686
Difference [2, 10]: −0.04

O=C(O)CCC(=O)Nc1ccc(S(=O)(=O)Nc2nccs2)cc1 [Succinylsulfathiazole]
Difference [1, 16]: 0.03
Cholesterol-free [1, 21]: 0.852
Complete [1, 22]: 0.8836
Cholesterol-free media + simvastatin (0.04 μM) [2, 8]: 1.231
Complete Media [2, 9]: 1.191
Difference [2, 10]: −0.04

OC[C@H]1O[C@@](CO)(O[C@H]2O[C@H](CO)[C@@H](O)[C@H](O)[C@H]2O)[C@@H](O)[C@@H]1O [Sucrose]
Difference [1, 26]: −0.74
Cholesterol-free [1, 27]: 1.582
Complete [1, 28]: 0.843
Cholesterol-free media + simvastatin (0.04 μM) [2, 17]: 1.867
Complete Media [2, 18]: 0.9772
Difference [2, 19]: −0.89

O=C([O-])CCSC[C@H]1O[C@@H]2O[C@H]3[C@H](O)[C@@H](O)[C@@H](O[C@H]4[C@H](O)[C@@H](O)[C@@H](O[C@H]5[C@H](O)[C@@H](O)[C@@H](O[C@H]6[C@H](O)[C@@H](O)[C@@H](O[C@H]7[C@H](O)[C@@H](O)[C@@H](O[C@H]8[C@H](O)[C@@H](O)[C@@H](O[C@H]9[C@H](O)C(O)[C@@H](O[C@H]1[C@H](O)[C@H]2O)O[C@@H]9CSCCC(=O)[O-])O[C@@H]8CSCCC(=O)[O-])O[C@@H]7CSCCC(=O)[O-])O[C@@H]6CSCCC(=O)[O-])O[C@@H]5CSCCC(=O)[O-])O[C@@H]4CSCCC(=O)[O-])O[C@@H]3CSCCC(=O)[O-].[Na+].[Na+].[Na+].[Na+].[Na+].[Na+].[Na+].[Na+] (some centres unmarked) [Sugammadex (sodium)]
Difference [1, 20]: −0.11
Cholesterol-free [1, 4]: 1.596
Complete [1, 5]: 1.487
Cholesterol-free media + simvastatin (0.04 μM) ([2]; NCI-H292 cells, cholesterol-free media with simvastatin 0.04 μM, […]): 0.9061
Complete Media ([2]; NCI-H292 cells, complete media, […]): 0.9946
Difference [2, 23]: 0.09

CC1(C)[C@H](C(=O)O)N2C(=O)C[C@H]2S1(=O)=O [Sulbactam]
Cholesterol-free [1]: 1.094
Complete [1]: 1.056
Difference [1]: −0.04
Cholesterol-free media + simvastatin (0.04 μM) [2]: 1.06
Complete Media [2]: 1.241
Difference [2]: 0.18
